Laboratory results from paper PMC8279416, “Structural Fine-Tuning of Desmuramylpeptide NOD2 Agonists Defines Their In Vivo Adjuvant Activity” (Journal of Medicinal Chemistry, 2021).
Several values for one entry are separate records, joined by “and”; a condition that tells them apart may be missing. Equal entries are not always repeated.

Target: T1, NOD2 (Homo sapiens, UniProt Q9HC29)
T1 construct: host or cells: HEK-Blue NOD2 cells (HEK293-derived)
Experiment: HEK-Blue NOD2 cell line reporter assay (NF-κB-inducible SEAP)
Type: cell-based
Settings: for NOD2 activity at 2 μM (fold increase): NF-κB transcriptional (SEAP) activity relative to 0.1% DMSO; for Decrease of NOD2 agonistic activity/potency by a factor, relative to 1: ratio of EC50 versus compound 1; for NOD2 activation (in words): compound alone
Method: To determine the NOD2 agonistic potential of the synthesized desmuramylpeptides at the cellular level, we used the validated and commercially available HEK-Blue NOD2 cell line reporter assay. HEK-Blue NOD2 cells were first treated for 18 h with MDP, 1, or the novel desmuramylpeptides at 2 μM. The NF-κB transcriptional activity measured was normalized to that of the vehicle treated (0.1% DMSO) control HEK-Blue NOD2 cells.
HEK-Blue NOD2 and NOD1 cell line reporter assays are derived from HEK293 cells by cotransfection of the hNOD2 or hNOD1 genes, respectively, and an NF-κB-inducible secreted embryonic alkaline phosphatase (SEAP) reporter gene. Following activation of NOD2 or NOD1, the resulting NF-κB induces production of SEAP, the levels of which can be quantified colorimetrically. […] After 18 h of incubation (37 °C, 5% CO2), secreted embryonic alkaline phosphatase (SEAP) activity was determined spectrophotometrically as absorbance at 630 nm (BioTek Synergy microplate reader; Winooski, VT, U.S.A.). EC50 values were calculated using Prism software (version 9; GraphPad Software, CA, U.S.A.). For determination of specificity, HEK-Blue NOD2 cells (2.5 × 10^5 cells/mL) were first pretreated for 1 h with a 10 μM NOD2 antagonist, before the addition of the compounds (2 μM), with incubation for 18 h. SEAP activity in the supernatants was determined as above. The experiments were run in duplicate and repeated as at least two independent biological replicates.

[1] = HEK-Blue NOD2 cells, 18 h, mean ± SEM
[2] = HEK-Blue NOD2 cells, 18 h, 7 or 8 concentrations 1 nM to 20 μM, mean ± SEM

T1 sequence (Q9HC29 whole entry): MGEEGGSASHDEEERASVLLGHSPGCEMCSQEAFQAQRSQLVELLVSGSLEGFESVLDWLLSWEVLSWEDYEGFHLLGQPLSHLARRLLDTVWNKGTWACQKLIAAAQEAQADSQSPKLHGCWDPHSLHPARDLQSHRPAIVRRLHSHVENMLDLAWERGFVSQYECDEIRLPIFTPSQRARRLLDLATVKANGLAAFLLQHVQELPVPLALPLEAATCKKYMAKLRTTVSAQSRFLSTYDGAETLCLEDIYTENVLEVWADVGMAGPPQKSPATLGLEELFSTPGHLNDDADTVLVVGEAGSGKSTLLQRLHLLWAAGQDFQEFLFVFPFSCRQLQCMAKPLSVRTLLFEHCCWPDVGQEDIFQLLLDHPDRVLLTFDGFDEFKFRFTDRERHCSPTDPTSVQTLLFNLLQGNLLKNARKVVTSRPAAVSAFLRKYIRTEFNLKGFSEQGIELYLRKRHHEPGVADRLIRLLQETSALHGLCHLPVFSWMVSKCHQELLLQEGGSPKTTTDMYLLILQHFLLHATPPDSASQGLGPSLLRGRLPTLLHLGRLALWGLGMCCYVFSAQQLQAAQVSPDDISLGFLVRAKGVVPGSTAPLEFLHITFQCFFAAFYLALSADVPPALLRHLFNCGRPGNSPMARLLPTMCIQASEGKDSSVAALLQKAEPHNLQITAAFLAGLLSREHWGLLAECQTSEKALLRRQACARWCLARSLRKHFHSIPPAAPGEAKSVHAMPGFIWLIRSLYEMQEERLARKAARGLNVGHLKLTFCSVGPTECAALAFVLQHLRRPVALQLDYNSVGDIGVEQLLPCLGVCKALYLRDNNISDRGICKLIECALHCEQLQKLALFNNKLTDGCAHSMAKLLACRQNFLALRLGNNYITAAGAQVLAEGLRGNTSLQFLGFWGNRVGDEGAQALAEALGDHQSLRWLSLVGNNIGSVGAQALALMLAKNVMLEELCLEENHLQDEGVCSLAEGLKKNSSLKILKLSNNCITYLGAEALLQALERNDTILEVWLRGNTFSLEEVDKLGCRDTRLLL

| Compound | NOD2 activity at 2 μM (fold increase) [1] | EC50 [2] [µM] | also measured |
| --- | --- | --- | --- |
| CCOC(=O)CC[C@@H](NC(=O)[C@@H](NC(=O)CNC(=O)/C=C/c1ccc(O)c(OC)c1)[C@@H](C)O)C(=O)OCC [Compound 32, Diethyl ((E)-3-(4-Hydroxy-3-methoxyphenyl)acryloyl)glycyl-L-threonyl-D-glutamate] | 1.54 ± 0.02 fold increase | 12.5 ± 1.22 |  |
| CCCCCCCCCCCCCCCCCC(=O)NCCCC[C@H](NC(=O)CC[C@@H](NC(=O)[C@@H](NC(=O)CNC(=O)/C=C/c1ccc(O)c(OC)c1)C(C)C)C(=O)OCC)C(=O)OC [Compound 82, Methyl N^2-((R)-5-Ethoxy-4-((S)-2-(2-((E)-3-(4-hydroxy-3-methoxyphenyl)acrylamido)acetamido)-3-methylbutanamido)-5-oxopentanoyl)-N^6-stearoyl-L-lysinate] | 2.00 ± 0.03 fold increase | 11.5 ± 3.91 | EC50 (HEK-Blue NOD2 cells): 11.5 µM |
| CCCCNC(=O)CC[C@@H](NC(=O)[C@@H](NC(=O)CNC(=O)/C=C/c1ccc(O)c(OC)c1)C(C)C)C(=O)OC(C)(C)C [Compound 59, tert-Butyl N^5-Butyl-N^2-((E)-3-(4-hydroxy-3-methoxyphenyl)acryloyl)glycyl-L-valyl-D-glutaminate] | 1.32 ± 0.05 fold increase |  |  |
| COc1cc(/C=C/C(=O)NCC(=O)N[C@H](C(=O)N[C@H](CCC(=O)OC2CCCC2)C(=O)OC2CCCC2)C(C)C)ccc1OC(C)=O [Compound 76, Dicyclopentyl ((E)-3-(4-Acetoxy-3-methoxyphenyl)acryloyl)glycyl-L-valyl-D-glutamate] | 2.67 ± 0.25 fold increase | 0.063 ± 0.0002 |  |
| CCOC(=O)CC[C@@H](NC(=O)[C@@H](NC(=O)CNC(=O)CCCc1ccc(O)c(OC)c1)C(C)C)C(=O)OCC [Compound 19, Diethyl (4-(4-Hydroxy-3-methoxyphenyl)butanoyl)glycyl-L-valyl-D-glutamate] | 1.73 ± 0.01 fold increase | 13.9 ± 0.8 | Decrease of NOD2 agonistic activity/potency by a factor, relative to 1: 156 |
| CCOC(=O)CC[C@@H](NC(=O)[C@@H](NC(=O)CNC(=O)C1CC1c1ccc(F)c(F)c1)C(C)C)C(=O)OCC (some centres unmarked) [Compound 29] | 2.63 ± 0.10 fold increase | 0.049 ± 0.003 |  |
| CCOC(=O)[C@@H](CCC(=O)N[C@@H](CCCCN)C(=O)OC)NC(=O)[C@@H](NC(=O)CNC(=O)/C=C/c1ccc(O)c(OC)c1)C(C)C [Compound 41, Methyl ((R)-5-Ethoxy-4-((S)-2-(2-((E)-3-(4-hydroxy-3-methoxyphenyl)acrylamido)acetamido)-3-methylbutanamido)-5-oxopentanoyl)-L-lysinate] | 1.86 ± 0.02 fold increase | 10.2 ± 2.62 | EC50 (HEK-Blue NOD2 cells): 10.2 µM |
| CCOC(=O)CC[C@@H](NC(=O)[C@@H](NC(=O)CNC(=O)[C@H]1C[C@@H]1c1ccc(F)c(F)c1)C(C)C)C(=O)OCC [Compound 29a] | 2.46 ± 0.12 fold increase | 0.066 ± 0.005 |  |
| CCCCCCCCCCCCCCCCCC(=O)Oc1ccc(/C=C/C(=O)NCC(=O)N[C@H](C(=O)N[C@H](CCC(=O)OC2CCCC2)C(=O)OC2CCCC2)C(C)C)cc1OC [Compound 78, Dicyclopentyl ((E)-3-(3-Methoxy-4-(stearoyloxy)phenyl)acryloyl)glycyl-L-valyl-D-glutamate] | 1.66 ± 0.11 fold increase | 6.16 ± 1.16 | EC50 (HEK-Blue NOD2 cells): 6.16 µM |
| COc1cc(/C=C/C(=O)NCC(=O)N[C@H](C(=O)N[C@H](CCC(=O)N2CCCC2)C(=O)OC(C)(C)C)C(C)C)ccc1O [Compound 62, tert-Butyl (R)-2-((S)-2-(2-((E)-3-(4-Hydroxy-3-methoxyphenyl)acrylamido)acetamido)-3-methylbutanamido)-5-oxo-5-(pyrrolidin-1-yl)pentanoate] | 1.43 ± 0.01 fold increase |  |  |
| CCOC(=O)CC[C@@H](NC(=O)[C@@H](NC(=O)CNC(=O)/C=C/c1ccc(N)cc1)C(C)C)C(=O)OCC [Compound 24, Diethyl ((E)-3-(4-Aminophenyl)acryloyl)glycyl-L-valyl-D-glutamate] | 2.45 ± 0.18 fold increase | 0.542 ± 0.048 |  |
| CCCCCCCCCCCC(=O)O [lauric acid, reference compound] |  |  | NOD2 activation (in words) (HEK-Blue NOD2 cells): did not show any NOD2 activation alone; Enhancement of the NOD2 agonistic activity of 1 (HEK-Blue NOD2 cells, in combination with 1, data not shown): did not enhance the NOD2 agonistic activity of 1 |
| CCOC(=O)CC[C@@H](NC(=O)[C@@H](NC(=O)CNC(=O)/C=C/c1ccc(C(C)C)cc1)C(C)C)C(=O)OCC [Compound 25, Diethyl ((E)-3-(4-Isopropylphenyl)acryloyl)glycyl-L-valyl-D-glutamate] | 2.83 ± 0.06 fold increase | 0.071 ± 0.004 |  |
| CCOC(=O)CC[C@@H](NC(=O)[C@H](CO)NC(=O)CNC(=O)/C=C/c1ccc(O)c(OC)c1)C(=O)OCC [Compound 31, Diethyl ((E)-3-(4-Hydroxy-3-methoxyphenyl)acryloyl)glycyl-L-seryl-D-glutamate] | 1.21 fold increase and 1.21 ± 0.08 fold increase | > 20 |  |
| COc1cc(/C=C/C(=O)NCC(=O)N[C@H](C(=O)N[C@H](CCC(=O)OC(C)(C)C)C(=O)N2CCCC2)C(C)C)ccc1O [Compound 64, tert-Butyl (R)-4-((S)-2-(2-((E)-3-(4-Hydroxy-3-methoxyphenyl)acrylamido)acetamido)-3-methylbutanamido)-5-oxo-5-(pyrrolidin-1-yl)pentanoate] | 1.33 ± 0.03 fold increase |  |  |
| CCCCCCCCCCCCCCCCCC(=O)Oc1ccc(/C=C/C(=O)NCC(=O)N[C@@H](COCc2ccccc2)C(=O)N[C@H](CCC(=O)OCC)C(=O)OCC)cc1OC [Compound 79, Diethyl O-Benzyl-N-(((E)-3-(3-methoxy-4-(stearoyloxy)phenyl)acryloyl)glycyl)-L-seryl-D-glutamate] | 1.68 fold increase and 1.68 ± 0.03 fold increase |  |  |
| CCOC(=O)CC[C@@H](NC(=O)[C@@H](NC(=O)CNC(=O)/C=C/c1ccc([N+](=O)[O-])cc1)C(C)C)C(=O)OCC [Compound 26, Diethyl ((E)-3-(4-Nitrophenyl)acryloyl)glycyl-L-valyl-D-glutamate] | 3.02 ± 0.07 fold increase | 0.049 ± 0.004 |  |
| CCCCNC(=O)CC[C@@H](NC(=O)[C@@H](NC(=O)CNC(=O)/C=C/c1ccc(O)c(OC)c1)C(C)C)C(=O)NCCCC [Compound 58, (R)-N^1,N^5-Dibutyl-2-((S)-2-(2-((E)-3-(4-hydroxy-3-methoxyphenyl)acrylamido)acetamido)-3-methylbutanamido)pentanediamide] | 1.30 ± 0.03 fold increase |  |  |
| COc1cc(/C=C/C(=O)NCC(=O)N[C@H](C(=O)N[C@H](CCC(=O)OC(C)(C)C)C(=O)N(C)OC)C(C)C)ccc1O [Compound 63, tert-Butyl (R)-4-((S)-2-(2-((E)-3-(4-Hydroxy-3-methoxyphenyl)acrylamido)acetamido)-3-methylbutanamido)-5-(methoxy(methyl)amino)-5-oxopentanoate] | 1.36 ± 0.05 fold increase |  |  |
| COc1cc(/C=C/C(=O)NCC(=O)N[C@H](C(=O)N[C@H](CCC(=O)N(C)OC)C(=O)OC(C)(C)C)C(C)C)ccc1O [Compound 61, tert-Butyl N^2-((E)-3-(4-Hydroxy-3-methoxyphenyl)acryloyl)glycyl-L-valyl-N^5-methoxy-N^5-methyl-D-glutaminate] | 1.33 ± 0.03 fold increase |  |  |
| CCCCCCCCCCCC(=O)Oc1ccc(/C=C/C(=O)NCC(=O)N[C@H](C(=O)N[C@H](CCC(=O)OC2CCCC2)C(=O)OC2CCCC2)C(C)C)cc1OC [Compound 77, Dicyclopentyl ((E)-3-(4-(Dodecanoyloxy)-3-methoxyphenyl)acryloyl)glycyl-L-valyl-D-glutamate] | 2.56 ± 0.12 fold increase | 0.243 ± 0.05 |  |
| CCNC(=O)CC[C@@H](NC(=O)[C@@H](NC(=O)CNC(=O)/C=C/c1ccc(O)c(OC)c1)C(C)C)C(=O)NCC [Compound 57, (R)-N^1,N^5-Diethyl-2-((S)-2-(2-((E)-3-(4-hydroxy-3-methoxyphenyl)acrylamido)acetamido)-3-methylbutanamido)pentanediamide] | 1.45 ± 0.05 fold increase |  | NOD2 activation (in words) (HEK-Blue NOD2 cells): substantially diminished activity |
| CCOC(=O)CC[C@@H](NC(=O)[C@@H](NC(=O)CNC(=O)/C=C/c1ccc(OC)c(OC)c1)C(C)C)C(=O)OCC [Compound 20, Diethyl ((E)-3-(3,4-Dimethoxyphenyl)acryloyl)glycyl-L-valyl-D-glutamate] | 2.64 ± 0.01 fold increase | 0.763 ± 0.088 |  |
| CCOC(=O)CC[C@@H](NC(=O)[C@@H](NC(=O)CNC(=O)CCc1ccc(O)c(OC)c1)C(C)C)C(=O)OCC [Compound 18, Diethyl (3-(4-Hydroxy-3-methoxyphenyl)propanoyl)glycyl-L-valyl-D-glutamate] | 1.97 ± 0.05 fold increase | 6.16 ± 0.842 | EC50 (HEK-Blue NOD2 cells): 6.16 µM; Decrease of NOD2 agonistic activity/potency by a factor, relative to 1: 70 |
